From EP3967293A1, “COMPOSITION BASED ON VITAMIN E FOR TOPIC USE” (Sigla S.r.l., priority 2020, dated 2022)

Key:
[1] = index of diffusion (spreading value), in vivo test on the forearm; conditions: 4 mg on the forearm; 23°C; relative humidity 60%; ten minutes after application
Description: The index of diffusion of a compound is defined as the area (in mm^2) of a skin surface covered by said compound in a specific period of time.
The method used to determine the index of diffusion of a liquid component is an in vivo test. This method consists in applying 4 mg of the component to be analysed on the front forearm of an individual. For each component, 4 separate applications were carried out on the same individual. The test is carried out at a temperature of 23°C and at a relative humidity of 60%. Ten minutes after application of a sample on the forearm the area of diffusion was photographed and measured.

[2] = viscosity, Rheomat RM 180 rheometer; format: physicochemical; conditions: at 20°C; 1500 shear rate for 5 min.
Description: The viscosity is measured using a Rheomat RM 180 rheometer. The sample analysed has a temperature between 20-25°C. The settings for the viscosity test are: bob 9, tube 1, 1500 shear rate for 5 min. (300 sec.).

Index of diffusion [1]: 1600 mm^2/10 min.
Viscosity [2]: 4 mPa·s
SMILES: CCCCCCCCOCCCCCCCC [Dicaprylyl ether]
